The values that follow come from ChEMBL document CHEMBL5316263, “Structure-Based Discovery of Selective Histone Deacetylase 8 Degraders with Potent Anticancer Activity” (J Med Chem, 2023).

Activity calls are given as the source filed them. The rule behind the calls is not given here.

The target in assay [1] is T1, Protein cereblon/Histone deacetylase 8 (Homo sapiens) (UniProt Q9BY41+Q96SW2). In words: Protac activity at CRBN/HDAC8 in human A549 cells assessed as degradation of HDAC8 at 2 uM measured after 20 hrs by Western blot analysis relative to control. In kind it is cell-based. In general terms: A western blot detects proteins with antibodies after separation by electrophoresis.
T1 sequence (Q96SW2 whole entry, looked up, one chain of several): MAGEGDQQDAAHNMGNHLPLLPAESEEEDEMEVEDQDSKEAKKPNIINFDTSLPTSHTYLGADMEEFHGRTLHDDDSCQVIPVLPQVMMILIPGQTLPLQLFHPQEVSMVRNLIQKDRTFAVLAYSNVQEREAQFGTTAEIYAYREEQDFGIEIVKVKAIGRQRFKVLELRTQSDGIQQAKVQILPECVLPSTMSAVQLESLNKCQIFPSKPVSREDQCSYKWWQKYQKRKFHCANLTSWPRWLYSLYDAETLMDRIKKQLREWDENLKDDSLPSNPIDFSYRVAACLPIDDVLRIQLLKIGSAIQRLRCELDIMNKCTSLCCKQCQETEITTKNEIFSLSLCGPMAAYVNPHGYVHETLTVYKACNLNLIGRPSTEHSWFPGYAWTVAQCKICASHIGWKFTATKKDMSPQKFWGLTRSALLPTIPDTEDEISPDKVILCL

Assay [2] addresses Protein cereblon/Histone deacetylase 8 (Homo sapiens, UniProt Q96SW2+Q9BY41). The assay is described as follows: Protac activity at CRBN/HDAC8 in human A549 cells assessed as degradation of HDAC8 incubated for 20 hrs by ELISA method. In kind it is cell-based.
For assay [3], the target named is T1, Protein cereblon/Histone deacetylase 8 (Homo sapiens). The assay is described as follows: Protac activity at CRBN/HDAC8 in human A549 cells assessed as degradation of HDAC8 at 200 nM measured after 20 hrs by Western blot analysis relative to control. In kind it is cell-based.
In assay [4] the target is T2, von Hippel-Lindau disease tumor suppressor/Histone deacetylase 8 (Homo sapiens) (UniProt Q9BY41+P40337). In words: Protac activity at VHL/HDAC8 in human A549 cells assessed as degradation of HDAC8 at 200 nM measured after 20 hrs by Western blot analysis relative to control. The class given is cell-based.
T2 sequence (P40337 whole entry, looked up, one chain of several): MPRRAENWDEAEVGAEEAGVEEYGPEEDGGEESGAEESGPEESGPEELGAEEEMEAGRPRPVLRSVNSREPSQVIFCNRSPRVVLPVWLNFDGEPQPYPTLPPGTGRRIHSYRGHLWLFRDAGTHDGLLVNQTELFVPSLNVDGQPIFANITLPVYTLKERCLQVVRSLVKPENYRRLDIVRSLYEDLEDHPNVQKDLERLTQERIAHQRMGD
For assay [5], the target named is T2, von Hippel-Lindau disease tumor suppressor/Histone deacetylase 8 (Homo sapiens). The assay is described as follows: Protac activity at VHL/HDAC8 in human A549 cells assessed as degradation of HDAC8 at 2 uM measured after 20 hrs by Western blot analysis relative to control. In kind it is cell-based.
For assay [6], the target named is von Hippel-Lindau disease tumor suppressor/Histone deacetylase 2 (Homo sapiens) (UniProt Q92769+P40337). In words: Protac activity at VHL/HDAC2 in human A549 cells assessed as degradation of HDAC2 at 0.1 to 10 uM by Western blot analysis. The conditions noted are these: dose 0.1-10 µM. The class given is cell-based.
von Hippel-Lindau disease tumor suppressor/Histone deacetylase 2 (Homo sapiens), sequence (P40337 whole entry, looked up): as the sequence (P40337 whole entry, looked up, one chain of several) above
von Hippel-Lindau disease tumor suppressor/Histone deacetylase 2 (Homo sapiens), sequence (Q92769 whole entry, looked up): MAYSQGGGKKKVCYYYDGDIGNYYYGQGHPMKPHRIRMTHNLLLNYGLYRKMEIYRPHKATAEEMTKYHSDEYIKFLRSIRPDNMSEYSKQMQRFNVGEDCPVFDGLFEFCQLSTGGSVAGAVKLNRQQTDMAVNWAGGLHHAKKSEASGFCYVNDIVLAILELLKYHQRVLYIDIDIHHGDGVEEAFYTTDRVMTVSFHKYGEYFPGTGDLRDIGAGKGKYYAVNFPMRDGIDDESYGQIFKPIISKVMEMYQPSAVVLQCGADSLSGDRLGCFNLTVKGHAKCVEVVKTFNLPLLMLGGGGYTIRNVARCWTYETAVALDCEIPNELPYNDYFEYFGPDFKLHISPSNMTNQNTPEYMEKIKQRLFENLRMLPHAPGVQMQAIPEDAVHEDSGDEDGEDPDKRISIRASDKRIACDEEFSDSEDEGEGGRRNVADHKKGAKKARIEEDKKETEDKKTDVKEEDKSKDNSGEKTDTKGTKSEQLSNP
For assay [7], the target named is T2, von Hippel-Lindau disease tumor suppressor/Histone deacetylase 8 (Homo sapiens). The assay is described as follows: Protac activity at VHL/HDAC8 in human A549 cells assessed as degradation of HDAC8 by Western blot analysis. In kind it is cell-based. Conditions: dose 0.1-10 µM.
The test system of assay [8] is A549. In words: Inhibition of colony formation in human A549 cells assessed as reduction in cell proliferation at 2.5 to 10 uM measured after 7 to 10 days with media replenishment along with compound for every 3 days by crystal violet staining based analysis. In kind it is functional. The conditions noted are these: dose 2.5-10 µM, time 7-10 day.
Assay [9] has as its target von Hippel-Lindau disease tumor suppressor/Histone deacetylase 3 (Homo sapiens) (UniProt O15379+P40337). The assay is described as follows: Protac activity at VHL/HDAC3 in human A549 cells assessed as degradation of HDAC3 at 0.1 to 10 uM by Western blot analysis. Conditions: dose 0.1-10 µM. The class given is cell-based.
Assay [10] concerns the target von Hippel-Lindau disease tumor suppressor/Histone deacetylase 1 (Homo sapiens) (UniProt Q13547+P40337). In words: Protac activity at VHL/HDAC1 in human A549 cells assessed as degradation of HDAC1 at 0.1 to 10 uM by Western blot analysis. In kind it is cell-based. The conditions noted are these: dose 0.1-10 µM.
For assay [11], the system named is HCT-116. In words: Inhibition of colony formation in human HCT-116 cells assessed as reduction in cell proliferation at 2.5 to 10 uM measured after 7 to 10 days with media replenishment along with compound for every 3 days by crystal violet staining based analysis. The class given is functional. Conditions: dose 2.5-10 µM, time 7-10 day.
For assay [12], the target named is T1, Protein cereblon/Histone deacetylase 8 (Homo sapiens). The assay is described as follows: Protac activity at CRBN/HDAC8 in human A549 cells assessed as maximum degradation at 10 uM incubated for 20 hrs by ELISA method relative to control. The class given is cell-based. (In general: ELISA stands for enzyme-linked immunosorbent assay.)
Assay [13] deals with Cereblon/Ikaros (Homo sapiens) (UniProt Q96SW2+Q13422). The assay is described as follows: Protac activity at CRBN/IKZF1 in human A549 cells assessed as reduction in IKZF1 protein level at 10 uM by Western blot analysis. The class given is cell-based.
Assay [14] has as its target T1, Protein cereblon/Histone deacetylase 8 (Homo sapiens). In words: Protac activity at CRBN/HDAC8 in human A549 cells assessed as reduction in HDAC8 protein level at 0.1 to 10 uM by Western blot analysis. The class given is cell-based. The conditions noted are these: dose 0.1-10 µM.
Assay [15] has as its system A549. The assay is described as follows: Antiproliferative activity against human A549 cells assessed as inhibition of cell growth measured after 72 hrs by CCK-8 method. In kind it is functional, cell-based. The conditions noted are these: for IC50: A549, 72 h; for Activity: dose <= 1.5 µM. For orientation: Tetrazolium assays rely on reduction of a dye to a coloured formazan, in cell work by metabolically active cells.

Assay [16] deals with T3, Histone deacetylase 8 (Homo sapiens) (UniProt Q9BY41).
T3 sequence (whole entry): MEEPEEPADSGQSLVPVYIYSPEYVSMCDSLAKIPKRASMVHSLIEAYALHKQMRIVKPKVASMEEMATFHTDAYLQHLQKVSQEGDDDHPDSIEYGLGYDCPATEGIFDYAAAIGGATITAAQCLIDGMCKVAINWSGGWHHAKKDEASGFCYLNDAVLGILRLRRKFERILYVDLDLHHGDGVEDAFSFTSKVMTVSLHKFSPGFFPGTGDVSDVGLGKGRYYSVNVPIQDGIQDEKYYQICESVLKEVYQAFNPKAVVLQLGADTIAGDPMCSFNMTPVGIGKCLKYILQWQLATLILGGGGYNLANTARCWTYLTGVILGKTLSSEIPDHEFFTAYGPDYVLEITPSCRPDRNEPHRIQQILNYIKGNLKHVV
In words: Induction of degradation in HDAC8 in human A549 cells at 200 nM measured after 20 hrs by Western blot analysis relative to control. The class given is cell-based.

Assay [17] deals with T3, Histone deacetylase 8 (Homo sapiens). In words: Induction of degradation in HDAC8 in human A549 cells at 2 microM measured after 20 hrs by Western blot analysis relative to control. In kind it is cell-based.
Assay [18] has the same target. The assay is described as follows: Induction of degradation in HDAC8 in human A549 cells at 10 uM incubated for 2 hrs by Western blot analysis. In kind it is cell-based.

Protein cereblon/Histone deacetylase 8, sequence (Q96SW2 whole entry, one chain of several): as the sequence (Q96SW2 whole entry, looked up, one chain of several) above
von Hippel-Lindau disease tumor suppressor/Histone deacetylase 3 (Homo sapiens), sequence (O15379 whole entry, looked up): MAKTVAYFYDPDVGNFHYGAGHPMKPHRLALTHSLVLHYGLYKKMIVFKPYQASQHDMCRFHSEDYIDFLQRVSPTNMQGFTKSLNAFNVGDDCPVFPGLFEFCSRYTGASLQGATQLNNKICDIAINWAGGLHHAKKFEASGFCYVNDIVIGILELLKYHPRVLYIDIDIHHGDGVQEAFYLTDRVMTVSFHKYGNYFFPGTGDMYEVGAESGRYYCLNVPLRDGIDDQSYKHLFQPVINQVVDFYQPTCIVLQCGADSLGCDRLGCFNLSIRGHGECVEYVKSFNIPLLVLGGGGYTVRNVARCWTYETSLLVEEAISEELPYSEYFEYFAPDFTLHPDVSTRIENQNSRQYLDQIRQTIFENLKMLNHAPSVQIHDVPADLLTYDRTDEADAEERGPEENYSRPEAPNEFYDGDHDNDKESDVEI
von Hippel-Lindau disease tumor suppressor/Histone deacetylase 3 (Homo sapiens), sequence (P40337 whole entry, looked up): as the sequence (P40337 whole entry, looked up, one chain of several) above
von Hippel-Lindau disease tumor suppressor/Histone deacetylase 1 (Homo sapiens), sequence (P40337 whole entry, looked up): as the sequence (P40337 whole entry, looked up, one chain of several) above
von Hippel-Lindau disease tumor suppressor/Histone deacetylase 1 (Homo sapiens), sequence (Q13547 whole entry, looked up): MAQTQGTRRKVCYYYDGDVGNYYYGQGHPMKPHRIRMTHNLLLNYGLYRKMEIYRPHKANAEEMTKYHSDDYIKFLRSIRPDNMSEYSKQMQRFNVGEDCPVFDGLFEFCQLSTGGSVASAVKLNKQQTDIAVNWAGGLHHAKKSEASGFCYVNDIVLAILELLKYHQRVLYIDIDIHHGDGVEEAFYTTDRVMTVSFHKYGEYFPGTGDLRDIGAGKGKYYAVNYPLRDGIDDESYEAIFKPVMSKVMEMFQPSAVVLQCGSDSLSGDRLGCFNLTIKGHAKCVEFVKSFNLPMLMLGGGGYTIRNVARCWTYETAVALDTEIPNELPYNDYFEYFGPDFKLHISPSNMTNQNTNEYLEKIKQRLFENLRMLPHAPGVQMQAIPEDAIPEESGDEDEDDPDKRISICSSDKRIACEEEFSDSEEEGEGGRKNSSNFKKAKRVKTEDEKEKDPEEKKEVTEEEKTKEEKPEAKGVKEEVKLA

By EC50 is commonly meant the concentration at which the effect is half-maximal. Consider `O=C1CCC(N2C(=O)c3cccc(NCc4cn(CCCCCCOc5ccc(Cn6ccc7ccc(C(=O)NO)cc76)cc5)nn4)c3C2=O)C(=O)N1` (stereo unspecified), for which the figures for the Activity in assay [1] and in assay [3] were 59.7% and 28.5%, respectively. Besides, the EC50 in [2] is 580 nM.
As for `Cc1ncsc1-c1ccc([C@H](C)NC(=O)[C@@H]2C[C@@H](O)CN2C(=O)[C@@H](NC(=O)COCCOCCOc2ccc(Cn3ccc4ccc(C(=O)NO)cc43)cc2)C(C)(C)C)cc1`, the Activity in assay [4] came out at 31.3%; in assay [5] it was 75.3%.
Regarding `Cc1ncsc1-c1ccc([C@H](C)NC(=O)[C@@H]2C[C@@H](O)CN2C(=O)[C@@H](NC(=O)COCCOc2ccc(Cn3ccc4ccc(C(=O)NO)cc43)cc2)C(C)(C)C)cc1`, the outcome in assay [6], in [9] and in assay [10] was inactive. The outcome in assay [7] was Active. Also, the inhibition entry in assay [8] and in [11] was “Active” throughout. For the same molecule, the Activity came to 45.7% in [4] and 91.3% in assay [5].
As for `Cc1ncsc1-c1ccc([C@H](C)NC(=O)[C@@H]2C[C@@H](O)CN2C(=O)[C@@H](NC(=O)CCCOc2ccc(Cn3ccc4ccc(C(=O)NO)cc43)cc2)C(C)(C)C)cc1`, the figures for the Activity in assay [4] and in [5] were 15.9% and 26.4%, respectively.
Taken in the same sequence, the figures for `Cc1ncsc1-c1ccc([C@H](C)NC(=O)[C@@H]2C[C@@H](O)CN2C(=O)[C@@H](NC(=O)COCCOCCOCCOc2ccc(Cn3ccc4ccc(C(=O)NO)cc43)cc2)C(C)(C)C)cc1` were 26.7% and 50.2%.
Regarding `Cc1ncsc1-c1ccc([C@H](C)NC(=O)[C@@H]2C[C@@H](O)CN2C(=O)[C@@H](NC(=O)CCCCCOc2ccc(Cn3ccc4ccc(C(=O)NO)cc43)cc2)C(C)(C)C)cc1`, the values for the Activity in assay [4] and in assay [5] were 27.3% and 51.4%, respectively.
In the same order, the values of `Cc1ncsc1-c1ccc([C@H](C)NC(=O)[C@@H]2C[C@@H](O)CN2C(=O)[C@@H](NC(=O)CCCCOc2ccc(Cn3ccc4ccc(C(=O)NO)cc43)cc2)C(C)(C)C)cc1` are 34.6% and 75.7%.
In the same order, the values of `Cc1ncsc1-c1ccc([C@H](C)NC(=O)[C@@H]2C[C@@H](O)CN2C(=O)[C@@H](NC(=O)CCCCCCOc2ccc(Cn3ccc4ccc(C(=O)NO)cc43)cc2)C(C)(C)C)cc1` are 29.8% and 73.6%.
Broadly, the Emax is the maximal effect, on the per cent scale that the assay sets. The term IC50 denotes the concentration needed to halve the response being measured. For the molecule `O=C1CCC(N2C(=O)c3cccc(NCc4cn(CCCCOc5ccc(Cn6ccc7ccc(C(=O)NO)cc76)cc5)nn4)c3C2=O)C(=O)N1` (stereo unspecified), in [12], the Emax was 90.2%. Further, the result in assay [13] and in [14] was Active. Moreover, the Activity in [1] is 83.6%; in [15], “Dose-Dependent Effect”; in assay [3], 30.6%. In addition, the EC50 in assay [2] is 470 nM. Further, the IC50 in assay [15] worked out at 7110 nM.
`O=C1CCC(N2C(=O)c3cccc(NCc4cn(CCOCCOCCOCCOCCOc5ccc(Cn6ccc7ccc(C(=O)NO)cc76)cc5)nn4)c3C2=O)C(=O)N1` (stereo unspecified): the Activity in [1] is 80.2%; in [3] it was 39.4%.
Taken in the same sequence, the figures for `O=C1CCC(N2C(=O)c3cccc(NCCc4cn(CCCCCOc5ccc(Cn6ccc7ccc(C(=O)NO)cc76)cc5)nn4)c3C2=O)C(=O)N1` (stereo unspecified) were 78.4% and 28%.
In the case of `Nc1cccc2c1C(=O)N(C1CCC(=O)NC1=O)C2=O` (stereo unspecified), the Activity was 9.5% in assay [16] and 12.8% in assay [17]. For the same molecule, the result in assay [18] was inactive.
For `O=C1CCC(N2C(=O)c3cccc(NCc4cn(CCCOc5ccc(Cn6ccc7ccc(C(=O)NO)cc76)cc5)nn4)c3C2=O)C(=O)N1` (stereo unspecified), the Activity in [1] stood at 69.4%; in assay [3], 25.6%.
As to `Cc1ncsc1-c1ccc([C@H](C)NC(=O)[C@@H]2C[C@@H](O)CN2C(=O)[C@@H](NC(=O)COCCOCCOCCOCCOc2ccc(Cn3ccc4ccc(C(=O)NO)cc43)cc2)C(C)(C)C)cc1`, the Activity in assay [4] was determined as 28.6%; in [5], 72.9%.
Regarding `O=C1CCC(N2C(=O)c3cccc(NCc4cn(CCOCCOCCOc5ccc(Cn6ccc7ccc(C(=O)NO)cc76)cc5)nn4)c3C2=O)C(=O)N1` (stereo unspecified), the Activity is 70.8% in assay [1] and 42.5% in [3].
In the same order, the values of `O=C1CCC(N2C(=O)c3cccc(NCCc4cn(CCOCCOc5ccc(Cn6ccc7ccc(C(=O)NO)cc76)cc5)nn4)c3C2=O)C(=O)N1` (stereo unspecified) are 71.2% and 29.4%.
Take `O=C1CCC(N2C(=O)c3cccc(NCc4cn(CCCCCOc5ccc(Cn6ccc7ccc(C(=O)NO)cc76)cc5)nn4)c3C2=O)C(=O)N1` (stereo unspecified): the Emax in [12] worked out at 90.2%. The outcome in assay [13] and in assay [14] was Active. In addition, the Activity in assay [1] was 85.9%; in [15], “Dose-Dependent Effect”; in assay [3] it was 39.5%. For the same molecule, the EC50 in assay [2] was found to be 620 nM. Further, the IC50 in assay [15] was 12500 nM.
For `O=C1CCC(N2C(=O)c3cccc(NCc4cn(CCOCCOCCOCCOc5ccc(Cn6ccc7ccc(C(=O)NO)cc76)cc5)nn4)c3C2=O)C(=O)N1` (stereo unspecified), the figures for the Activity in assay [1] and in assay [3] were 65.9% and 36.5%, respectively.
